Where two headings read alike, the source gives them in different places. No end group written: not given here.
Experiments:
E. coli ATCC 25922 [1] = assay: microbe, parasite or virus in culture; details: Escherichia coli
A. baumannii ATCC 19606 = assay: microbe, parasite or virus in culture; details: Acinetobacter baumannii
MRSA ATCC 43300 = assay: microbe, parasite or virus in culture; details: Staphylococcus aureus, ATCC43300|MRSA
E. coli ATCC 25922 [2] = format: cell-based
Source text: Antibacterial activity testing (in solid media).

| Compound | zone of inhibition at 64 µg/mL (E. coli ATCC 25922 [1]; ATCC25922, read-out: Inhibition zone diameter (mm) E. coli ATCC 25922 Rep 1) [mm] | zone of inhibition at 64 µg/mL (E. coli ATCC 25922 [1]; ATCC25922, read-out: Inhibition zone diameter (mm) E. coli ATCC 25922 Rep 2) [mm] | zone of inhibition at 64 µg/mL (E. coli ATCC 25922 [1]; ATCC25922, read-out: Inhibition zone diameter (mm) E. coli ATCC 25922 Rep 3) [mm] | zone of inhibition at 64 µg/mL (A. baumannii ATCC 19606; ATCC19606, read-out: Inhibition zone diameter (mm) A. baumannii ATCC 19606 Rep 1) [mm] | zone of inhibition at 64 µg/mL (A. baumannii ATCC 19606; ATCC19606, read-out: Inhibition zone diameter (mm) A. baumannii ATCC 19606 Rep 2) [mm] | zone of inhibition at 64 µg/mL (A. baumannii ATCC 19606; ATCC19606, read-out: Inhibition zone diameter (mm) A. baumannii ATCC 19606 Rep 3) [mm] | zone of inhibition at 64 µg/mL (MRSA ATCC 43300; read-out: Inhibition zone diameter (mm) MRSA ATCC 43300 Rep 1) [mm] | zone of inhibition at 64 µg/mL (MRSA ATCC 43300; read-out: Inhibition zone diameter (mm) MRSA ATCC 43300 Rep 2) [mm] | zone of inhibition at 64 µg/mL (MRSA ATCC 43300; read-out: Inhibition zone diameter (mm) MRSA ATCC 43300 Rep 3) [mm] | inhibition zone (E. coli ATCC 25922 [2]) |
| --- | --- | --- | --- | --- | --- | --- | --- | --- | --- | --- |
| O=C(O)c1cn(C2CC2)c2cc(N3CCNCC3)c(F)cc2c1=O [CIP, Ciprofloxacin] | 42 | 40 | 42 | 27 | 28 | 27 | 27 | 28 | 29 |  |
| LNSQKFPILNLVQLSATR [I_87_SF] |  |  |  |  |  |  |  |  |  | 9-10 mm |
